Values joined by “and” are separate entries in the source; they are usually repeats but may differ in a detail not shown here. Equal entries are not always repeated. Where two headings read alike, the source gives them in different places.
How the values were obtained:
[1] = test system: HIV-1; set-up: method as in ref 11 = [11]; PMID 32612233; doi:10.1038/s41586-020-2443-1; 11 Link JO et al Clinical targeting of HIV capsid protein with a long-acting small molecule Nature 2020 584 7822 614 618 10.1038/s41586-020-2443-1 32612233 PMC8188729; conditions: cited from earlier work
[2] = test system: SHIV-SF162P3; format: in vivo, rhesus macaques

Structure (SMILES): CC(C)(C#Cc1ccc(-c2ccc(Cl)c3c(NS(C)(=O)=O)nn(CC(F)(F)F)c23)c([C@H](Cc2cc(F)cc(F)c2)NC(=O)Cn2nc(C(F)(F)F)c3c2C(F)(F)[C@@H]2C[C@H]32)n1)S(C)(=O)=O [LEN, Lenacapavir]
- EC50 ([1]; 23 HIV-1 clinical isolates, mitogen-activated human PBMCs, 7-day assay): 0.05 ± 0.03 nM
- EC95 ([1]; 23 HIV-1 isolates, human PBMCs): 0.12 nM and 0.12 ± 0.07 nM
- time of measurable anti-capsid (p27) antibodies ([2]; 3 animals positive for SHIV by qPCR): ≤ 4 week after challenge
- first detectable intact SHIV DNA ([2]; 3 animals with confirmed viremia): 2 week after challenge
- animals becoming infected ([2]; LEN exposure above the 70 nM target at challenge): 0 of 6
- Animal number, Infected ([2]; LEN-dosed <target (70 nM)): 3
- Animal number, Uninfected ([2]; LEN-dosed <target (70 nM)): 2
- Animal number, Infected ([2]; LEN-dosed >target (70 nM)): 0
- Animal number, Uninfected ([2]; LEN-dosed >target (70 nM)): 6
- Animal number, Infected ([2]; LEN-dosed total): 3
- Animal number, Uninfected ([2]; LEN-dosed total): 8
- Challenge outcome ([2]; animal BM55, 20 mg/kg): Infected
- Intact SHIV DNA / 10M PBMC ([2]; animal BM55, 20 mg/kg, Wk 2 post challenge): 145.35 / 10M PBMC
- Plasma SHIV RNA ([2]; animal BM55, 20 mg/kg, week 6 post challenge): 7809 copies per mL
- Plasma SHIV RNA ([2]; animal BM55, 20 mg/kg, week 7 post challenge): 4541 copies per mL
- Plasma SHIV RNA ([2]; animal BM55, 20 mg/kg, week 8 post challenge): 69 copies per mL
- Plasma SHIV RNA ([2]; animal BM55, 20 mg/kg, week 9 post challenge): 62 copies per mL
- Plasma SHIV RNA ([2]; animal BM55, 20 mg/kg, week 10 post challenge): 62 copies per mL
- Challenge outcome ([2]; animal BN33, 20 mg/kg): Not infected
- Intact SHIV DNA / 10M PBMC ([2]; animal BN33, 20 mg/kg, Wk 2 post challenge): 1 / 10M PBMC
- Intact SHIV DNA / 10M PBMC ([2]; animal BN33, 20 mg/kg, Wk 10 post challenge): 1 / 10M PBMC
- Plasma SHIV RNA ([2]; animal BN33, 20 mg/kg, week 6 post challenge): 62 copies per mL
- Plasma SHIV RNA ([2]; animal BN33, 20 mg/kg, week 7 post challenge): 62 copies per mL
- Plasma SHIV RNA ([2]; animal BN33, 20 mg/kg, week 8 post challenge): 62 copies per mL
- Plasma SHIV RNA ([2]; animal BN33, 20 mg/kg, week 9 post challenge): 62 copies per mL
- Plasma SHIV RNA ([2]; animal BN33, 20 mg/kg, week 10 post challenge): 62 copies per mL
- Challenge outcome ([2]; animal CP67, 75 mg/kg): Not infected
- Intact SHIV DNA / 10M PBMC ([2]; animal CP67, 75 mg/kg, Wk 2 post challenge): 1 / 10M PBMC
- Intact SHIV DNA / 10M PBMC ([2]; animal CP67, 75 mg/kg, Wk 10 post challenge): 1 / 10M PBMC
- Plasma SHIV RNA ([2]; animal CP67, 75 mg/kg, week 0 post challenge): 62 copies per mL
- Plasma SHIV RNA ([2]; animal CP67, 75 mg/kg, week 1 post challenge): 62 copies per mL
- Plasma SHIV RNA ([2]; animal CP67, 75 mg/kg, week 2 post challenge): 62 copies per mL
- Challenge outcome ([2]; animal V229, 20 mg/kg): Infected
- Intact SHIV DNA / 10M PBMC ([2]; animal V229, 20 mg/kg, Wk 2 post challenge): 398.25 / 10M PBMC
- Plasma SHIV RNA ([2]; animal V229, 20 mg/kg, week 6 post challenge): 189 copies per mL
- Plasma SHIV RNA ([2]; animal V229, 20 mg/kg, week 7 post challenge): 79 copies per mL
- Plasma SHIV RNA ([2]; animal V229, 20 mg/kg, week 8 post challenge): 69 copies per mL
- Plasma SHIV RNA ([2]; animal V229, 20 mg/kg, week 9 post challenge): 62 copies per mL
- Plasma SHIV RNA ([2]; animal V229, 20 mg/kg, week 10 post challenge): 62 copies per mL
- Challenge outcome ([2]; animal V411, 50 mg/kg): Not infected
- Intact SHIV DNA / 10M PBMC ([2]; animal V411, 50 mg/kg, Wk 2 post challenge): 1 / 10M PBMC
- Intact SHIV DNA / 10M PBMC ([2]; animal V411, 50 mg/kg, Wk 10 post challenge): 1 / 10M PBMC
- Plasma SHIV RNA ([2]; animal V411, 50 mg/kg, week 0 post challenge): 62 copies per mL
- Plasma SHIV RNA ([2]; animal V411, 50 mg/kg, week 1 post challenge): 62 copies per mL
- Plasma SHIV RNA ([2]; animal V411, 50 mg/kg, week 2 post challenge): 62 copies per mL
- Plasma SHIV RNA ([2]; animal V411, 50 mg/kg, week 3 post challenge): 62 copies per mL
- Plasma SHIV RNA ([2]; animal V411, 50 mg/kg, week 4 post challenge): 62 copies per mL
- Plasma SHIV RNA ([2]; animal V411, 50 mg/kg, week 5 post challenge): 62 copies per mL
- Plasma SHIV RNA ([2]; animal V411, 50 mg/kg, week 6 post challenge): 62 copies per mL
- Plasma SHIV RNA ([2]; animal V411, 50 mg/kg, week 7 post challenge): 62 copies per mL
- Plasma SHIV RNA ([2]; animal V411, 50 mg/kg, week 8 post challenge): 62 copies per mL
- Plasma SHIV RNA ([2]; animal V411, 50 mg/kg, week 9 post challenge): 62 copies per mL
- Plasma SHIV RNA ([2]; animal V411, 50 mg/kg, week 10 post challenge): 62 copies per mL
- Plasma SHIV RNA ([2]; animal V411, 50 mg/kg, week 11 post challenge): 62 copies per mL
- Plasma SHIV RNA ([2]; animal V411, 50 mg/kg, week 12 post challenge): 62 copies per mL
- Plasma SHIV RNA ([2]; animal V411, 50 mg/kg, week 13 post challenge): 62 copies per mL
- Plasma SHIV RNA ([2]; animal V411, 50 mg/kg, week 14 post challenge): 62 copies per mL
- Plasma SHIV RNA ([2]; animal V411, 50 mg/kg, week 15 post challenge): 62 copies per mL
- Plasma SHIV RNA ([2]; animal V411, 50 mg/kg, week 16 post challenge): 62 copies per mL
- Plasma SHIV RNA ([2]; animal V411, 50 mg/kg, week 17 post challenge): 62 copies per mL
- Plasma SHIV RNA ([2]; animal V411, 50 mg/kg, week 18 post challenge): 62 copies per mL
- Challenge outcome ([2]; animal V417, 75 mg/kg): Not infected
- Intact SHIV DNA / 10M PBMC ([2]; animal V417, 75 mg/kg, Wk 2 post challenge): 1 / 10M PBMC
- Intact SHIV DNA / 10M PBMC ([2]; animal V417, 75 mg/kg, Wk 10 post challenge): 1 / 10M PBMC
- Plasma SHIV RNA ([2]; animal V417, 75 mg/kg, week 0 post challenge): 62 copies per mL
- Plasma SHIV RNA ([2]; animal V417, 75 mg/kg, week 1 post challenge): 62 copies per mL
- Plasma SHIV RNA ([2]; animal V417, 75 mg/kg, week 2 post challenge): 62 copies per mL
- Challenge outcome ([2]; animal V426, 75 mg/kg): Not infected
- Intact SHIV DNA / 10M PBMC ([2]; animal V426, 75 mg/kg, Wk 2 post challenge): 1 / 10M PBMC
- Intact SHIV DNA / 10M PBMC ([2]; animal V426, 75 mg/kg, Wk 10 post challenge): 1 / 10M PBMC
- Plasma SHIV RNA ([2]; animal V426, 75 mg/kg, week 0 post challenge): 62 copies per mL
- Plasma SHIV RNA ([2]; animal V426, 75 mg/kg, week 1 post challenge): 62 copies per mL
- Plasma SHIV RNA ([2]; animal V426, 75 mg/kg, week 2 post challenge): 62 copies per mL
- Plasma SHIV RNA ([2]; animal V426, 75 mg/kg, week 3 post challenge): 62 copies per mL

Reference: PMC10425210 (The Journal of Clinical Investigation, 2023)
